Source: PubChem BioAssay AID2740 (NMMLSC, 2010)
Several values for one entry are separate records, joined by “and”; a condition that tells them apart may be missing. Equal values may be shown once. Activity calls are given as the source filed them.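 How the source made its calls: active means compounds whose fitted half-maximal concentration for changing the GFP signal is at or below a set limit; inactive means the rest.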

Test system: not listed separately
Experiment: TOR pathway RPL19A-GFP modulators, concentration series – cell-based, S. cerevisiae, flow cytometry, MLPCN hits, dose response (AID 2740);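 on GFP fluorescence, lower = active: background is signal of the same compound in parental non-GFP s288c yeast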
Settings: S. cerevisiae RPL19A-GFP strain, flow cytometry fluorescence, 3 h; at 33 µM (top of the series)

SMILES	GFP fluorescence, lower = active (kMESF (background-subtracted))
COC(=O)c1cc(N2C(=O)C3C(C2=O)C2(C)C=CC3(C)O2)ccc1Cl (centres undefined)	28.8 (inactive)
O/C=c1\ccc2cccc3nc(C(F)(F)F)nc1c23	53.9 (inactive)
COc1cc(CNC(=O)CCCCCCC(C)C)ccc1O	48.5 (inactive)
Oc1c(CN2CCN(c3ccc(F)cc3)CC2)cc(Cl)c2cccnc12	40.4 (inactive)
Cc1ccc(N2C(=O)CC(Sc3ncn[nH]3)C2=O)cc1C (centres undefined)	49.3 (inactive)
Cc1cccc(OCCN2CSC(=S)N(C)C2)c1	40.5 (inactive)
COc1ccc(N2CCN(C(=O)c3ccccc3)CC2)c([N+](=O)[O-])c1	47.4 (inactive)
O=C(NC(=S)NNC(=O)c1cnccn1)c1ccc(F)cc1	31.9 (inactive)
CC(=O)NN1C(=O)/C(=C/c2ccc(Br)o2)SC1=S	40.5 (inactive)
O=C1Nc2ccccc2/C1=C\C(=O)c1ccccc1	34.2 (inactive)
CC1=C/C(=N\OS(=O)(=O)c2ccccc2)C(C(C)C)=CC1=O	21.4 (inactive)
CC(C)(C)C(=O)NC(=S)NNC(=O)c1ccc(-c2ccccc2)cc1	40.7 (inactive)
COc1ccc(C(c2c(C)[nH]n(C(N)=S)c2=O)C(C#N)C#N)cc1 (centres undefined)	24.7 (inactive)
Cc1cccc(N=Nc2ccc(O)c3ncccc23)c1	33.3 (inactive)
O=C(NNC(=S)NC(=O)c1ccco1)c1ccc(F)cc1	49.8 (inactive)
Fc1cccc(Nc2ncnc3c2cnn3-c2ccccc2)c1	35.1 (inactive)
Cc1cccc(N=C2NC(=O)/C(=C/C=C/c3ccco3)S2)c1C	34.7 (inactive)
O=S1(=O)C=C(Sc2nc3ccccc3s2)c2ccccc21	36 (inactive)
O=C1Nc2ccc(Br)cc2/C1=C/C(=O)c1ccc2c(c1)OCO2	40.6 (inactive)
O=C1C(Cl)=C(Nc2ccccc2O)C(=O)N1c1ccccc1	43.6 (inactive)
Cc1c(NC2=C(Cl)C(=O)N(c3ccccc3)C2=O)c(=O)n(-c2ccccc2)n1C	43.6 (inactive)
Cc1cccc(Nc2nc(-c3ccccn3)cs2)n1	29.8 (inactive)
CCCc1cc(N2CCN(c3ccccn3)CC2)n2nc(C)c(-c3ccccc3)c2n1	38.1 (inactive)
Cc1ccc(/C=C/C(=O)c2ccc([N+](=O)[O-])o2)cc1	46.1 (inactive)

SMILES	GFP fluorescence, lower = active (kMESF (background-subtracted))
CC1(C(=O)NC(=S)NNC(=O)c2ccncc2)CCCCC1	39.9 (inactive)
c1ccc(-c2csc(Nc3cccnc3)n2)nc1	36.5 (inactive)
CN(Cc1cnc2nc(N)nc(N)c2n1)c1ccc(C(=O)N[C@@H](CCC(=O)O)C(=O)O)cc1	39.3 (inactive) and 38.8 (inactive)
CN(C)NC(=S)Nc1ccc(S(=O)(=O)N2CCCCC2)cc1	44.8 (inactive)
CCOC(=O)c1ccc(N=Cc2nc(-c3ccccc3)oc2OC(C)=O)cc1	41.6 (inactive)
COc1cc(NC(=O)c2ccccc2[N+](=O)[O-])ccc1NC(=O)c1cc2ccccc2o1	39.2 (inactive)
CN(O)/C=c1/ccc2c(n1)C(=O)C=CC=2	39.2 (inactive)
O=C(O)C1Sc2[nH]c(=O)sc2C2c3cc(Br)ccc3OC(=O)C12 (centres undefined)	37.8 (inactive)
Cc1ccc(C(=O)Oc2oc(-c3ccccc3)nc2C=Nc2ccc(N(C)C)cc2)cc1	38.8 (inactive)
O=[N+]([O-])c1ccc(Sc2nc3ccccc3o2)c([N+](=O)[O-])c1	45.5 (inactive)
Cc1ccccc1N=Nc1ccc(O)c2ncccc12	36.9 (inactive)
CCCCc1ccc(/C=C2/C(=O)ON=C2c2ccccc2)s1	44.1 (inactive)
CCn1c(=O)c(C(C)=O)c(O)c2ccccc21	47 (inactive)
CC(C)CC(=O)NC(=S)Nc1nc(-c2ccccc2)cs1	38.4 (inactive)
Oc1ccc(CNc2ccccc2)c2cccnc12	42.2 (inactive)
O=C1/C(=C\c2ccc(O)c(O)c2)SC(=S)N1Cc1ccccc1	1.52 (inactive)
O=C(/C=C/Sc1ncn[nH]1)c1ccc(Cl)cc1	29 (inactive)
CN1CCN(C(c2ccc(C(F)(F)F)cc2)c2ccc3cccnc3c2O)CC1 (centres undefined)	29.6 (inactive)
O=C1NC(=O)N(c2ccccc2)C(=O)/C1=C/c1ccc(Sc2ccccc2)o1	37.1 (inactive)
O=[N+]([O-])c1ccc(-c2cn3nc(-c4ccccc4)c(-c4ccccc4)nc3n2)cc1	48.8 (inactive)
O=C1NC(=O)N(CCc2ccc(F)cc2)C(=O)/C1=C/c1cccs1	38.2 (inactive)
N=C1S/C(=C\c2ccco2)C(=O)N1c1nccs1	47.2 (inactive)
Cc1ccsc1/C=C1\C(=O)NC(=S)N(C)C1=O	19.6 (inactive)
O=C(Nc1cccc(-c2csc(Nc3ccccc3)n2)c1)c1ccccc1	33.7 (inactive)

SMILES	GFP fluorescence, lower = active (kMESF (background-subtracted))
COc1cc(C=C2C(=O)c3ccccc3C2=O)cc(OC)c1	41.6 (inactive)
COc1cc(/C=C2\C(=O)N(CCC#N)N=C2C)c(Br)cc1OC(C)C	39.9 (inactive)
O=C(Oc1oc(-c2ccco2)nc1C=Nc1ccccc1)c1ccoc1	46.5 (inactive)
CCC(=O)Nc1ccc(NC(=O)c2cc3ccccc3o2)c(OC)c1	40.4 (inactive)
COc1ccc2c(/C=C/c3cc[n+](C)cc3)c[nH]c2c1	39 (inactive)
CC(=O)Oc1cccc(N2C(=O)c3cccc4c([N+](=O)[O-])ccc(c34)C2=O)c1	39.5 (inactive)
O=C(/C=C/c1ccc(F)cc1)NC(=S)NNC(=O)c1cnccn1	36.8 (inactive)
Cc1ccccc1[C@@]1(C)ON(c2ccccc2C(F)(F)F)C1=O	40.6 (inactive)
COc1cc(/C=C2/C(=O)ON=C2c2ccccc2)ccc1O	35.6 (inactive)
N#C/C(=C\c1ccccn1)c1nc2ccccc2s1	54.2 (inactive)
O=C(C#Cc1cccc([N+](=O)[O-])c1)c1ccccc1	41.3 (inactive)
Cc1ccc2c(c1)c(/C=C/c1cc[n+](C)cc1)c(C)n2C	40.7 (inactive)
O=c1oc2cc(Oc3c([N+](=O)[O-])cc(C(F)(F)F)cc3[N+](=O)[O-])ccc2c2c1CCCC2	36.1 (inactive)
C=CCOc1cccc(C(=O)/C=C2/C(=O)Nc3ccccc32)c1	40.7 (inactive)
O=C(/C=C/c1ccccc1Cl)c1ccccc(=O)c1O	5.26 (inactive)
Cc1cccc2c1NC(=O)/C2=C\C(=O)c1cccs1	34.4 (inactive)
CCCc1cc(=O)oc2cc(C)cc(OCC(=O)NC3CC3)c12	39 (inactive)
O=C(Sc1cccc2cccnc12)c1ccccc1Br	34.8 (inactive)
O=C(O)/C=C/C(=O)c1ccc2c(c1)CCc1ccccc1-2	16.8 (inactive)
Cc1ccc(NC(=O)c2nc(S(=O)(=O)Cc3ccccc3)ncc2Cl)cc1	43 (inactive)
CCN(CC(=O)Nc1cc(S(=O)(=O)N2CCOCC2)ccc1Cl)Cc1ccccc1	43.2 (inactive)
CCCOc1ccc(C(=O)NNC(=S)NC(=O)c2ccccc2)cc1	45.7 (inactive)

Test system: S. cerevisiae RPL19A-GFP strain, flow cytometry fluorescence, 3 h
Experiment: as above
Settings: not given

SMILES	EC50 [µM]
O=C(Nc1ccc(Cl)cc1Cl)c1cccc(N2C(=O)C=CC2=O)c1	9.64
O=C(CSC1=NS(=O)(=O)c2ccccc21)Nc1ccccc1	5.5
O=[N+]([O-])c1ccc(S(=O)(=O)c2cccc(C(F)(F)F)c2)nc1	11.8
CC(Oc1ccc(Br)cc1)C(=O)Nc1nc(-c2ccccn2)cs1 (centres undefined)	20.5
CN1CCN(C(=O)c2cc(COc3c(F)cccc3F)on2)CC1c1ccccc1 (centres undefined)	8.03
O=C(/C=C/c1cccc(Cl)c1)c1nc2ccccc2[nH]1	4.06
C#CCOCCOCCOCCNc1nc(N2CCN(C(=O)CCCCCCCCCCNC(=O)[C@@H](CCC(=O)O)n3cc(CCCCCN)nn3)CC2)nc(N2CCN(C(=O)CCCCCCCCCCNC(=O)[C@H](CCCCN)n3cc(C[C@@H](C)CC)nn3)CC2)n1	11
O=C(/C=C/c1ccccn1)c1cc(Br)ccc1O	8.96
O=C1NC(=O)N(Cc2ccc(F)cc2)C(=O)/C1=C/c1cccs1	4.65
Cc1ccc(NC(=O)c2cc(N3C(=O)C=CC3=O)ccc2Cl)cc1C	7.49
O=C1C=CC(=O)N1c1ccc(Sc2ccc([N+](=O)[O-])cc2)cc1	10.2
ClC(Cl)(c1nnnn1-c1ccccc1)c1nnnn1-c1ccccc1	4.62
C#CCOCCOCCOCCNc1nc(N2CCN(C(=O)CCCCCCCCCCNC(=O)[C@H](CCCCN)n3cc(CCO)nn3)CC2)nc(N2CCN(C(=O)CCCCCCCCCCNC(=O)[C@H](CCCN=C(N)N)n3cc(C[C@@H](C)CC)nn3)CC2)n1	10
O=C1C=CC(=O)N1c1cccc(-c2ccccc2)c1	2.7
